Results taken from paper PMC8776995 (Frontiers in Chemistry, 2022).
“And” between values parts separate entries of the source, which are not always exact repeats. Identical values can stand only once. Like-named read-outs stand apart in the source and are kept apart here.

Assays:
H460 cells = experiment: CCK-8 antiproliferation assay, H460; conditions: for Inhibitory efficacy: H460 cells; for IC50: NCI-H460, 48 h, read-out: IC50 (μM) H460, CCK-8, 48 h, average ± SD of three independent experiments
Experimental: (§1) The compounds were dissolved in DMSO to make a 20 μM stock solution and diluted to the concentration of working solutions with complete growth medium before administration.
(§2) Cells were seeded in 96-well plates: 3,000–5,000 cells/well in 100 ul. One day after seeding, the test compounds at concentration between 1.0 and 16.0 μ M or 0.1% DMSO (as control) were added to cells in triplicate. 48 h later, CCK-8 was added and incubated the plate for 1–4 h in the incubator. The absorbance at 450 nm were measured using a microplate reader (Bio-Tek).

H1975 cells = experiment: CCK-8 antiproliferation assay, H1975; conditions: for Inhibitory efficacy: H1975 cells; for IC50: NCI-H1975, 48 h, read-out: IC50 (μM) H1975, CCK-8, 48 h, average ± SD of three independent experiments
A549 cells = experiment: CCK-8 antiproliferation assay, A549; conditions: for Inhibitory efficacy: A549 cells; for Inhibitory efficacy / inhibition at 1 µM / inhibition at 2 µM / inhibition at 4 µM / inhibition at 8 µM / inhibition at 16 µM: given as fraction, Repeat 1-3; for IC50 / inhibition at 1 µM / inhibition at 2 µM / inhibition at 4 µM / inhibition at 8 µM / inhibition at 16 µM: Homo sapiens; for IC50: A549, 48 h, read-out: IC50 (μM) A549, CCK-8, 48 h, average ± SD of three independent experiments; for inhibition at 1 µM / inhibition at 2 µM / inhibition at 4 µM / inhibition at 8 µM / inhibition at 16 µM: A549, read-out: Inhibitory efficacy, A549 cells
Experimental: as §1, §2

PC-9 cells = experiment: CCK-8 antiproliferation assay, PC-9; conditions: for IC50: PC-9, 48 h, read-out: IC50 (μM) PC-9; for inhibition at 8 µM: PC-9, read-out: Inhibitory efficacy, PC-9, 8uM, single repeats (Repeat 1-3), given as fraction; for inhibition at 16 µM: PC-9, read-out: Inhibitory efficacy, PC-9, 16uM, single repeats (Repeat 1-3), given as fraction; for Inhibitory efficacy: single repeats (Repeat 1-3), given as fraction
wild-type EGFR = wild-type EGFR (Homo sapiens, UniProt P00533); experiment: EGFR kinase assay (ELISA); conditions: for IC50: ELISA, 3 μmol/L ATP; for A450: raw ELISA absorbance
[1] = 4uM, given as fraction, Repeat 1-3
[2] = 8uM, given as fraction, Repeat 1-3
[3] = 16uM, given as fraction, Repeat 1-3
[4] = Homo sapiens, NCI-H460, read-out: Inhibitory efficacy, H460 cells, 4uM, given as fraction, Repeat 1-3
[5] = Homo sapiens, NCI-H460, read-out: Inhibitory efficacy, H460 cells, 8uM, given as fraction, Repeat 1-3
[6] = Homo sapiens, NCI-H460, read-out: Inhibitory efficacy, H460 cells, 16uM, given as fraction, Repeat 1-3
[7] = Homo sapiens, NCI-H1975, read-out: Inhibitory efficacy, H1975 cells, 8uM, given as fraction, Repeat 1-3
[8] = Homo sapiens, NCI-H1975, read-out: Inhibitory efficacy, H1975 cells, 16uM, given as fraction, Repeat 1-3
[9] = concentration 0.03 nM, one value per replicate column, 3e-05 µM
[10] = concentration 0.3 nM, one value per replicate column, 0.0003 µM
[11] = concentration 3 nM, one value per replicate column
[12] = concentration 3 nM, one value per replicate column, 0.003 µM
[13] = concentration 30 nM, one value per replicate column
[14] = concentration 30 nM, one value per replicate column, 0.03 µM
[15] = concentration 300 nM, one value per replicate column
[16] = concentration 300 nM, one value per replicate column, 0.3 µM
[17] = concentration 3000 nM, one value per replicate column
[18] = concentration 3000 nM, one value per replicate column, 3 µM
[19] = concentration 30000 nM, one value per replicate column
[20] = concentration 30000 nM, one value per replicate column, 30 µM
[21] = 1uM, given as fraction, Repeat 1-3
[22] = 2uM, given as fraction, Repeat 1-3

Chain of wild-type EGFR (P00533 25-1210): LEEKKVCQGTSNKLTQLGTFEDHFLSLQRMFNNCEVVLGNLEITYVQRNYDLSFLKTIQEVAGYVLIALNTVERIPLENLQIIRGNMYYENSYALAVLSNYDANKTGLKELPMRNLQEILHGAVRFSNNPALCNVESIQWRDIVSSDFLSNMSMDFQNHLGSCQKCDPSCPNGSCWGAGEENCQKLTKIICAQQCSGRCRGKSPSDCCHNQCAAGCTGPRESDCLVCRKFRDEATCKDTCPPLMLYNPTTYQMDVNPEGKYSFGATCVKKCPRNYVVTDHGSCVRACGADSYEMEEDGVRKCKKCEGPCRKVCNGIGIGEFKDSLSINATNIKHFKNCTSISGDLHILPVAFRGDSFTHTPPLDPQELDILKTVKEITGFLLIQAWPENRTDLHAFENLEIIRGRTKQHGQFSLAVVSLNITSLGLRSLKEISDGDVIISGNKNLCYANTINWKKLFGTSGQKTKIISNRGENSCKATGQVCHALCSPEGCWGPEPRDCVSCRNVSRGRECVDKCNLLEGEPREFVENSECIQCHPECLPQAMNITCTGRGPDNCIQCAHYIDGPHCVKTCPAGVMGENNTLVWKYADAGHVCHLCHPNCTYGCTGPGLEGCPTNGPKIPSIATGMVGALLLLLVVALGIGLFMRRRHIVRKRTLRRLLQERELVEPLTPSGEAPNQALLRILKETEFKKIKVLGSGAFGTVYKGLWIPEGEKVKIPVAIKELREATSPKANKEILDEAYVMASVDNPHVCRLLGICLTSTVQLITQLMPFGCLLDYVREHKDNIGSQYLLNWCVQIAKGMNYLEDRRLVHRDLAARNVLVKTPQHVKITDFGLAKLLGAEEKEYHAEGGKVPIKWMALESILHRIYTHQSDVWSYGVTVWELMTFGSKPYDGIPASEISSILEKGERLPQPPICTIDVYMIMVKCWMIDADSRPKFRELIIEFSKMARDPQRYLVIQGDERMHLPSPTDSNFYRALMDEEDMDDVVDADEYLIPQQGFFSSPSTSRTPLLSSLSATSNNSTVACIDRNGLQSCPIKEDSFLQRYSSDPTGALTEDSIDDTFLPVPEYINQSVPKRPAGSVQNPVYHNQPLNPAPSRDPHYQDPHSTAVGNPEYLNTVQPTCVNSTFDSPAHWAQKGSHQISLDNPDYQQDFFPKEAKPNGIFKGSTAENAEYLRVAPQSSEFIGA

In the case of `COCCOc1cc2ncnc(Nc3cccc(-c4cn(-c5ccccc5C(F)(F)F)nn4)c3)c2cc1OCCOC` [e16, [6,7-Bis-(2-methoxy-ethoxy)-quinazolin-4-yl]-{3-[1-(2-trifluoromethyl-phenyl)-1H-[1,2,3]triazol-4-yl]-phenyl}-amine], the melting point is reported as 113 to 116 °C, the Inhibitory efficacy (H460 cells; [1]) is reported as 0.2156 and 0.191 and the Inhibitory efficacy (H460 cells; [2]) is reported as 0.4491 and 0.447. The Inhibitory efficacy (H460 cells; [3]) was 0.6066 and 0.6034, the IC50 (H460 cells; Homo sapiens) was 10.9 ± 0.39 µM and the inhibition at 4 µM (H460 cells; [4]) was 21.3%. The inhibition at 8 µM (H460 cells; [5]) was 49.5%, the inhibition at 16 µM (H460 cells; [6]) was 57.3% and the Inhibitory efficacy (H1975 cells; [2]) was 0.3646 and 0.348. For the same compound, the Inhibitory efficacy (H1975 cells; [3]) was 0.506 and 0.5045, the IC50 (H1975 cells; Homo sapiens) was 15.3 ± 1.55 µM and the inhibition at 8 µM (H1975 cells; [7]) was 44%. The inhibition at 16 µM (H1975 cells; [8]) was 48%, the Inhibitory efficacy (A549 cells; 1uM) was 0.2305 and 0.3107 and the Inhibitory efficacy (A549 cells; 2uM) was 0.2917 and 0.3288. For the same compound, the Inhibitory efficacy (A549 cells; 4uM) was 0.4966 and 0.48, the Inhibitory efficacy (A549 cells; 8uM) was 0.5015 and 0.5395 and the Inhibitory efficacy (A549 cells; 16uM) was 0.6478 and 0.6577. The IC50 (A549 cells) was 5.75 ± 0.48 µM, the inhibition at 1 µM (A549 cells; 1uM) was 15.9% and the inhibition at 2 µM (A549 cells; 2uM) was 32.3%. The inhibition at 4 µM (A549 cells; 4uM) was 54.2%, the inhibition at 8 µM (A549 cells; 8uM) was 54.2% and the inhibition at 16 µM (A549 cells; 16uM) was 64%. The IC50 (PC-9 cells; Homo sapiens) was 7.71 ± 1.15 µM, the inhibition at 4 µM (PC-9 cells; Homo sapiens, PC-9, read-out: Inhibitory efficacy, PC-9, 4uM, single repeats (Repeat 1-3), given as fraction) was 49.1% and the inhibition at 8 µM (PC-9 cells; Homo sapiens) was 56.9%. For the same compound, the inhibition at 16 µM (PC-9 cells; Homo sapiens) was 60.8%, the Inhibitory efficacy (PC-9 cells; PC-9, 4uM, 4 µM) was 0.4427 and 0.4497 and the Inhibitory efficacy (PC-9 cells; PC-9, 8uM, 8 µM) was 0.7173 and 0.5415. The Inhibitory efficacy (PC-9 cells; PC-9, 16uM, 16 µM) was 0.5494 and 0.5275, the IC50 (wild-type EGFR; IC50 (μM) EGFR) was 32.5 µM and the Inhibition (wild-type EGFR; [9]) was 19.0252 and 4.409. For the same compound, the Inhibition (wild-type EGFR; [10]) was 9.134, the inhibition at 0.003 µM (wild-type EGFR; [11]) was 19.8% and the Inhibition (wild-type EGFR; [12]) was 15.5906. It also gave an inhibition at 0.03 µM (wild-type EGFR; [13]) of 23.4%, an Inhibition (wild-type EGFR; [14]) of 15.748 and an inhibition at 0.3 µM (wild-type EGFR; [15]) of 27%. The Inhibition (wild-type EGFR; [16]) was 20.1575, the inhibition at 3 µM (wild-type EGFR; [17]) was 29.6% and the Inhibition (wild-type EGFR; [18]) was 27.7165. The inhibition at 30 µM (wild-type EGFR; [19]) was 60.1%, the Inhibition (wild-type EGFR; [20]) was 60 and the A450 (wild-type EGFR; concentration 0.0001 nM) was 0.901 and 0.865. The A450 (wild-type EGFR; concentration 0.03 nM) was 0.78 and 0.837, the A450 (wild-type EGFR; concentration 0.3 nM) was 0.775 and 0.807 and the A450 (wild-type EGFR; concentration 3 nM) was 0.775 and 0.766. For the same compound, the A450 (wild-type EGFR; concentration 30 nM) was 0.752 and 0.765, the A450 (wild-type EGFR; concentration 300 nM) was 0.729 and 0.737 and the A450 (wild-type EGFR; concentration 3000 nM) was 0.713 and 0.689. For the same compound, the A450 (wild-type EGFR; concentration 30000 nM) was 0.519 and 0.484.

For `COCCOc1cc2ncnc(Nc3cccc(-c4cn(-c5ccc(C)cc5O)nn4)c3)c2cc1OCCOC` [e18, 2-(4-{3-[6,7-Bis-(2-methoxy-ethoxy)-quinazolin-4-ylamino]-phenyl}-[1,2,3]triazol-1-yl)-5-methyl-phenol], the melting point was 100 to 103 °C, the Inhibitory efficacy (H460 cells; [21]) was 0.2332 and 0.2742 and the Inhibitory efficacy (H460 cells; [22]) was 0.4443 and 0.3282. For the same compound, the Inhibitory efficacy (H460 cells; [1]) was 0.5163 and 0.5814, the Inhibitory efficacy (H460 cells; [2]) was 0.5774 and 0.6654 and the Inhibitory efficacy (H460 cells; [3]) was 0.7445 and 0.6414. The IC50 (H460 cells; Homo sapiens) was 4.3 ± 0.62 µM, the inhibition at 1 µM (H460 cells; Homo sapiens, NCI-H460, read-out: Inhibitory efficacy, H460 cells, 1uM, given as fraction, Repeat 1-3) was 17.1% and the inhibition at 2 µM (H460 cells; Homo sapiens, NCI-H460, read-out: Inhibitory efficacy, H460 cells, 2uM, given as fraction, Repeat 1-3) was 27.5%. For the same compound, the inhibition at 4 µM (H460 cells; [4]) was 55.5%, the inhibition at 8 µM (H460 cells; [5]) was 55% and the inhibition at 16 µM (H460 cells; [6]) was 72.3%. The Inhibitory efficacy (H1975 cells; [21]) was 0.2067 and 0.1552, the Inhibitory efficacy (H1975 cells; [22]) was 0.2381 and 0.2095 and the Inhibitory efficacy (H1975 cells; [1]) was 0.3038 and 0.341. The Inhibitory efficacy (H1975 cells; [2]) was 0.4524 and 0.4681, the Inhibitory efficacy (H1975 cells; [3]) was 0.6095 and 0.6024 and the IC50 (H1975 cells; Homo sapiens) was 10 ± 0.69 µM. The inhibition at 1 µM (H1975 cells; Homo sapiens, NCI-H1975, read-out: Inhibitory efficacy, H1975 cells, 1uM, given as fraction, Repeat 1-3) was 16.5%, the inhibition at 2 µM (H1975 cells; Homo sapiens, NCI-H1975, read-out: Inhibitory efficacy, H1975 cells, 2uM, given as fraction, Repeat 1-3) was 26.2% and the inhibition at 4 µM (H1975 cells; Homo sapiens, NCI-H1975, read-out: Inhibitory efficacy, H1975 cells, 4uM, given as fraction, Repeat 1-3) was 33.4%. For the same compound, the inhibition at 8 µM (H1975 cells; [7]) was 46.7%, the inhibition at 16 µM (H1975 cells; [8]) was 55.4% and the Inhibitory efficacy (A549 cells; 1uM) was 0.3234 and 0.3188. The Inhibitory efficacy (A549 cells; 2uM) was 0.4627 and 0.499, the Inhibitory efficacy (A549 cells; 4uM) was 0.5875 and 0.5347 and the Inhibitory efficacy (A549 cells; 8uM) was 0.7578 and 0.7459. The Inhibitory efficacy (A549 cells; 16uM) was 0.8733 and 0.8713, the IC50 (A549 cells) was 2.53 ± 0.2 µM and the inhibition at 1 µM (A549 cells; 1uM) was 24.6%. For the same compound, the inhibition at 2 µM (A549 cells; 2uM) was 37.2%, the inhibition at 4 µM (A549 cells; 4uM) was 66.7% and the inhibition at 8 µM (A549 cells; 8uM) was 73.2%. For the same compound, the inhibition at 16 µM (A549 cells; 16uM) was 88.9%, the IC50 (PC-9 cells; Homo sapiens) was 15.2 ± 0.75 µM and the inhibition at 8 µM (PC-9 cells; Homo sapiens) was 25.2%. For the same compound, the inhibition at 16 µM (PC-9 cells; Homo sapiens) was 48.5%, the Inhibitory efficacy (PC-9 cells; PC-9, 8uM, 8 µM) was 0.3051 and 0.2654 and the Inhibitory efficacy (PC-9 cells; PC-9, 16uM, 16 µM) was 0.5238 and 0.4787. The inhibition at 100 fM (wild-type EGFR; concentration 0.0001 nM (reference for normalisation), one value per replicate column) was 0%, the inhibition at 30 pM (wild-type EGFR; concentration 0.03 nM, one value per replicate column) was 5.9% and the Inhibition (wild-type EGFR; [9]) was 7.547. It also gave an inhibition at 0.0003 µM (wild-type EGFR; concentration 0.3 nM, one value per replicate column) of 9.63%, an Inhibition (wild-type EGFR; [10]) of 10.2916 and an inhibition at 0.003 µM (wild-type EGFR; [11]) of 16.9%. For the same compound, the Inhibition (wild-type EGFR; [12]) was 12.693, the inhibition at 0.03 µM (wild-type EGFR; [13]) was 21.1% and the Inhibition (wild-type EGFR; [14]) was 13.2075. It also gave an inhibition at 0.3 µM (wild-type EGFR; [15]) of 25.3%, an Inhibition (wild-type EGFR; [16]) of 17.1527 and an inhibition at 3 µM (wild-type EGFR; [17]) of 26.1%. The Inhibition (wild-type EGFR; [18]) was 22.2985, the inhibition at 30 µM (wild-type EGFR; [19]) was 68.9% and the Inhibition (wild-type EGFR; [20]) was 69.1252. For the same compound, the A450 (wild-type EGFR; concentration 0.0001 nM) was 0.879 and 0.798, the A450 (wild-type EGFR; concentration 0.03 nM) was 0.841 and 0.754 and the A450 (wild-type EGFR; concentration 0.3 nM) was 0.817 and 0.738. For the same compound, the A450 (wild-type EGFR; concentration 3 nM) was 0.77 and 0.724, the A450 (wild-type EGFR; concentration 30 nM) was 0.743 and 0.721 and the A450 (wild-type EGFR; concentration 300 nM) was 0.716 and 0.698. The A450 (wild-type EGFR; concentration 3000 nM) was 0.711 and 0.668, the A450 (wild-type EGFR; concentration 30000 nM) was 0.435 and 0.395 and the IC50 (wild-type EGFR; read-out: IC50 (μM) EGFR) was 12.4 µM.
